Patent publication US10183015B2, “Heterocyclic compounds and methods of use” (Medivation Technologies LLC, priority 2015, dated 2019)
Values joined by “and” are separate entries in the source; they are usually repeats but may differ in a detail not shown here. Equal entries are not always repeated.

How the values were obtained:
[1] = system: SREBP; test: SREBP-responsive promoter luciferase reporter assay in HepG2_LSSprom cells; type: cell-based; details: 6 hours of treatment, medium without serum; read-out: IC50 for luciferase expression
Procedure: HepG2_LSSprom cells were cultured in DMEM with 10% fetal bovine serum and 1% penicillin/streptomycin for 24 hours. Cells were then treated with increasing concentrations of Compound #37 or an equal volume of DMSO in culture medium without serum. Luciferase expression was measured and compared after 6 hours of treatment.

[2] = system: LDLR; test: DIN mouse model: hepatic LDLR gene expression; type: in vivo; design: key to LDLR 2^DDct: expression relative to vehicle group, normalized to 18S; details: liver, 20 mg/kg group
Procedure: (§1) Gene expression analysis. Hepatic expression levels of genes involved in lipid metabolism (FAS, SREBP1, ACC1, SCD1), cholesterol metabolism (HMG-CoAR, LDLR), SREBP proteolysis (SCAP, INSIG1), ER stress (PERK), oxidative stress (NRF2), inflammation (MCP-1), and fibrosis (collagen 1α1) were quantified by RTqPCR. Expression level was normalized to 18S gene expression and relative expression to vehicle group was calculated with the […] method.
(§2) Male C57Bl/6J mice (8 weeks old) were housed in enriched ventilated cages (31×12.5×12.7 cm) throughout the experimental phase. Animals' cages litters were changed at least once a week. Animal were housed 5 per cage on inverted 12-hour light cycle (at 09:00 am lights off), 22±2° C. and 55±10% relative humidity. The acclimation period was 20 days. During the acclimation period, all mice were fed a standard diet (RM1 (E) 801492, SDS) and tap water ad libitum. After the acclimation period, mice were fed with the DIN diet (60% fat, cholesterol enriched) and fructose-enriched tap water ad libitum until the end of the experiment.
(§3) At 6 weeks of diet, mice were 4-hour fasted (09:00 am to 1:00 pm) and blood (150 μl/EDTA) was collected at 01:00 pm by retro-orbital bleeding under isoflurane anesthesia. Mice were then allocated in 2 homogenous groups (n=12/group) according to their plasma levels of ALT (average levels: 685U/L), AST (average levels: 627U/L) and HOMA-IR index (average value: 4.7), into 2 homogenous groups (see values at day 0 in Tables 15A and 15B ALT/AST and Tables 16A and 16B for HOMA-IR). Mice were then treated once daily by oral gavage with vehicle (Group 1) or Compound #37 at 20 mg/kg (Group 2) for 70 days.
(§4) Hepatic expression levels of genes involved in lipid (FAS, SREBP1, ACC1, SCD1), cholesterol metabolism (HMG-CoAR, LDLR), in SREBP proteolysis (SCAP, INSIG1), in ER stress (PERK), oxidative stress (NRF2), and inflammation (MCP-1) were not changed. However, expression of collagen 1α1, involved in liver fibrosis, was reduced by 66% in mice treated with Compound #37 (p<0.05 vs. vehicle).

[3] = system: MCP-1; test: DIN mouse model: hepatic MCP-1 gene expression; type: in vivo; details: liver, 20 mg/kg group
Procedure: as §1, §2, §3, §4

[4] = system: 60% high fat Paigen diet induced NASH mouse model; test: Short-term Paigen-diet NASH mouse model: liver weight and liver lipid content; type: in vivo
Procedure: To investigate whether Compound #37 prevents the development of pathology associated with NASH and steatosis in an acute exploratory disease model, a study was conducted using a diet-induced acute liver steatosis model in mice. […]
After acclimation, 8-week old male C57Bl/6J mice (Charles River) weighing about 25 g were randomized in 4 groups according their body weight and treated once daily around noon by oral gavage with vehicle, […] (2-hydroxypropyl)-β-cyclodextrin (HP-β-CD) (n=10); Group 2: Compound #37, 5 mg/kg (n=10) Group 3: Compound #37, 20 mg/kg (n=10) Group 4: Compound #37, 40 mg/kg (n=10). During the treatment period, body weight and food intake (measured over 24h) were measured 3 times per week and once a week, respectively. During the acclimation, all mice were fed a standard diet (Special Diets Services RM1 (E), product no. 801492) and tap water ad libitum. […]
After 21 days of treatment, mice were 4-hour fasted (9 am to 1 pm). One hour after the last dosing (noon), blood was collected by retro-orbital bleeding (maximal volume on EDTA) under isoflurane anesthesia to measure plasma triglycerides, total cholesterol, non-esterified fatty acid, ALT and AST. Mice were then sacrificed by cervical dislocation, and livers were harvested and weighed. Liver samples from the same lobe were dissected, frozen, and analyzed as described below.
At the end of the treatment period, livers were weighed, and their lipid content was analyzed. The liver weights were unchanged by the treatment.

[5] = individual animals, normalised to 18S, 20 mg/kg
[6] = individual animals, vs vehicle mean, 20 mg/kg
[7] = 5 mg/kg p.o. daily, 21 days of diet and treatment, group mean
[8] = 5 mg/kg p.o. daily, 21 days of diet and treatment, individual animals
[9] = 20 mg/kg p.o. daily, 21 days of diet and treatment, group mean
[10] = 20 mg/kg p.o. daily, 21 days of diet and treatment, individual animals
[11] = 40 mg/kg p.o. (stopped after 4 administrations), 9 days of diet, group mean
[12] = 40 mg/kg p.o. (stopped after 4 administrations), 9 days of diet, individual animals

With CC(C)Cc1cc(-c2nc(-c3ccc(NS(=O)(=O)C(F)(F)F)cc3Cl)cs2)ccn1 [Compound 37, N-(3-chloro-4-(2-(2-isobutylpyridin-4-yl)thiazol-4-yl)phenyl)-1,1,1-trifluoromethanesulfonamide] the IC50 [1] was 2700 nM, the “LDLR Dct” value [2, 5] was 12.37 and 11.75 and 14.3 and 12.94 and 13.5 and 12.33 and 12.03 and 12.22 and 12.97 and 13.44 and 11.28 and the “LDLR 2^DDct” value [2, 6] was 1.65 and 2.54 and 0.43 and 1.11 and 0.76 and 1.7 and 2.09 and 1.84 and 1.09 and 0.79 and 3.52. For the same molecule, the “LDLR DDct” value [2, 6] was −0.73 and −1.35 and 1.2 and −0.16 and 0.4 and −0.77 and −1.07 and −0.88 and −0.13 and 0.34 and −1.82, the “LDLR (Ct)” value ([2]; individual animals, 20 mg/kg) was 24.92 (2×) and 24.3 and 27.14 and 25.37 and 25.85 and 23.76 and 24.73 and 24.47 and 24.99 and 23.63 and the “LDLR 2^DDct” value ([2]; mean, n 11) was 1.59. The “LDLR (Ct)” value ([2]; mean, n 11) was 24.9, the “LDLR DDct” value ([2]; mean, n 11) was −0.45 and the “LDLR Dct” value ([2]; mean, n 11) was 12.6. The “MCP-1 Dct” value [3, 5] was 14.34 and 13.63 and 15.61 and 13.59 and 13.54 and 13.66 and 14.89 and 16.32 and 15.5 and 15.74 and 11.79, the “MCP-1 2^DDct” value [3, 6] was 0.61 and 0.99 and 0.25 and 1.02 and 1.06 and 0.97 and 0.41 and 0.15 and 0.27 and 0.23 and 3.55 and the “MCP-1 DDct” value [3, 6] was 0.72 and 0.01 and 1.99 and −0.03 and −0.08 and 0.04 and 1.27 and 2.7 and 1.88 and 2.12 and −1.83. For the same molecule, the “MCP-1 (Ct)” value ([3]; individual animals, 20 mg/kg) was 26.89 and 26.18 and 28.45 and 26.02 and 25.89 and 26.25 and 26.62 and 28.83 and 27 and 27.29 and 24.14, the “MCP-1 2^DDct” value ([3]; mean, n 11) was 0.87 and the “MCP-1 (Ct)” value ([3]; mean, n 11) was 26.7. For the same molecule, the “MCP-1 DDct” value ([3]; mean, n 11) was 0.80, the “MCP-1 Dct” value ([3]; mean, n 11) was 14.4 and the “liver cholesterol (μg/mg tissue)” value [4, 7] was 34.4 μg/mg tissue. For the same molecule, the “liver fatty acids (nmol/mg tissue)” value [4, 7] was 57.6 nmol/mg tissue, the “liver triglycerides (μg/mg tissue)” value [4, 7] was 6.2 μg/mg tissue and the “liver cholesterol (μg/mg tissue)” value [4, 8] was 42.24 μg/mg tissue and 37.91 μg/mg tissue and 31.39 μg/mg tissue and 23.12 μg/mg tissue and 31.47 μg/mg tissue and 25.31 μg/mg tissue and 29.76 μg/mg tissue and 37.34 μg/mg tissue and 49.15 μg/mg tissue and 36.57 μg/mg tissue. The “liver fatty acids (nmol/mg tissue)” value [4, 8] was 65.4 nmol/mg tissue and 66.6 nmol/mg tissue and 53.5 nmol/mg tissue and 47.5 nmol/mg tissue and 55.2 nmol/mg tissue (2×) and 35.5 nmol/mg tissue and 55.0 nmol/mg tissue and 77.4 nmol/mg tissue and 65.2 nmol/mg tissue, the “liver triglycerides (μg/mg tissue)” value [4, 8] was 6.91 μg/mg tissue and 7.18 μg/mg tissue and 4.64 μg/mg tissue and 9.62 μg/mg tissue and 6.13 μg/mg tissue (2×) and 5.69 μg/mg tissue and 5.49 μg/mg tissue and 3.62 μg/mg tissue and 6.16 μg/mg tissue and the “liver cholesterol (μg/mg tissue)” value [4, 9] was 39.1 μg/mg tissue. The “liver fatty acids (nmol/mg tissue)” value [4, 9] was 63.3 nmol/mg tissue, the “liver triglycerides (μg/mg tissue)” value [4, 9] was 5.4 μg/mg tissue and the “liver cholesterol (μg/mg tissue)” value [4, 10] was 38.32 μg/mg tissue and 42.07 μg/mg tissue and 39.38 μg/mg tissue and 32.61 μg/mg tissue and 40.02 μg/mg tissue and 42.44 μg/mg tissue. For the same molecule, the “liver fatty acids (nmol/mg tissue)” value [4, 10] was 63.4 nmol/mg tissue and 66.5 nmol/mg tissue and 65.0 nmol/mg tissue and 50.0 nmol/mg tissue and 62.7 nmol/mg tissue and 72.5 nmol/mg tissue, the “liver triglycerides (μg/mg tissue)” value [4, 10] was 6.75 μg/mg tissue and 2.65 μg/mg tissue and 2.83 μg/mg tissue and 3.72 μg/mg tissue and 9.84 μg/mg tissue and 6.82 μg/mg tissue and the “liver cholesterol (μg/mg tissue)” value [4, 11] was 20.3 μg/mg tissue. The “liver fatty acids (nmol/mg tissue)” value [4, 11] was 43.0 nmol/mg tissue, the “liver triglycerides (μg/mg tissue)” value [4, 11] was 11.7 μg/mg tissue and the “liver cholesterol (μg/mg tissue)” value [4, 12] was 22.40 μg/mg tissue and 20.18 μg/mg tissue and 20.88 μg/mg tissue and 17.60 μg/mg tissue. The “liver fatty acids (nmol/mg tissue)” value [4, 12] was 43.6 nmol/mg tissue and 43.1 nmol/mg tissue and 43.5 nmol/mg tissue and 41.8 nmol/mg tissue and the “liver triglycerides (μg/mg tissue)” value [4, 12] was 9.11 μg/mg tissue and 11.15 μg/mg tissue and 14.68 μg/mg tissue and 11.77 μg/mg tissue.
